Assay results published in patent US10617680B2 (CELGENE QUANTICEL RESEARCH, INC., priority 2017, dated 2020).
pIC50: −log10 of the molar value. Where two headings read alike, the source gives them in different places.

Assays:
[1] = target: BRD4 (Homo sapiens (Human), UniProt O60885); test: In vitro enzyme inhibition assay - BRD4 inhibition; assay type: binding; conditions: BRD4 BD1, Table 30
[2] = target: CBP (Homo sapiens (Human), UniProt Q92793); test: In vitro CBP inhibition (AlphaScreen, biotinylated H4-tetraacetyl peptide); assay type: binding
Procedure, shortened: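 His-tagged CBP expressed in E. coli (50 nM final) incubated with biotinylated H4K5/8/12/16(Ac) peptide (20 nM final) in 50 mM HEPES pH 7.3, 10 mM NaCl, 0.25 mM TCEP, 0.1% BSA, 0.005% Brij-35, 0.4% DMSO, 20 min at room temp.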

[3] = AlphaScreen, Table 29, read-out: CBP IC50
[4] = Table 30, read-out: CRREBBP IC50

CBP, sequence (Q92793 1081-1197): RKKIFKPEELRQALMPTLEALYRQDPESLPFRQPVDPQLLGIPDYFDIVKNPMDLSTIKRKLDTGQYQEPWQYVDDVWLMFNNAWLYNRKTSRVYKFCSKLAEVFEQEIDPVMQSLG

Molecule	pIC50 [1]	pIC50 [2, 3]	pIC50 [2, 4]
Cc1cc(-c2cnn(C(c3ccccc3)C3CC3)c2)cn(C)c1=O (stereo not drawn) [Example 18, 5-(1-(cyclopropyl (phenyl)methyl)-1H-pyrazol-4-yl)-1,3-dimethyl-pyridin-2(1H)-one]	5.30 to 6.30	–	–
CC(c1ccccc1)n1cc(-c2cn(C)c(=O)cc2N2CCCC2)cn1 (stereo not drawn) [Example 41, 1-methyl-5-(1-(1-phenylethyl)-1H-pyrazol-4-yl)-4-(pyrrolidin-1-yl) pyridin-2(1H)-one]	5.30 to 6.30	> 6.30	> 6.30
CC(c1ccccc1)n1cc(-c2cn(C)c(=O)cc2N2CCOCC2)cn1 (stereo not drawn) [Example 43, 1-methyl-4-morpholino-5-(1-(1-phenylethyl)-1H-pyrazol-4-yl) pyridin-2(1H)-one]	5.30 to 6.30	> 6.30	> 6.30
Cn1cc(-c2cnn(Cc3ccccc3)c2)c(N2CC[C@@H](C(=O)O)C2)cc1=O [Example 74, (R)-1-(5-(1-benzyl-1H-pyrazol-4-yl)-1-methyl-2-oxo-1,2-dihydro-pyridin-4-yl)pyrrolidine-3-carboxylic acid]	< 5.30	> 6.30	> 6.30
Cn1cc(-c2cnn(Cc3ccccc3)c2)c(-n2ccnc2)cc1=O [Example 94, 5-(1-benzyl-1H-pyrazol-4-yl)-4-(1H-imidazol-1-yl)-1-methyl-pyridin-2(1H)-one]	< 5.30	> 6.30	> 6.30
Cc1cc(-c2cc(=O)n(C)cc2-c2cnn(Cc3ccccc3)c2)[nH]n1 [Example 115, 5-(1-benzyl-1H-pyrazol-4-yl)-1-methyl-4-(3-methyl-1H-pyrazol-5-yl) pyridin-2(1H)-one]	< 5.30	> 6.30	> 6.30
Cn1cc(-c2cnn(Cc3ccccc3)c2)c(-c2ccon2)cc1=O [Example 121, 5-(1-benzyl-1H-pyrazol-4-yl)-4-(isoxazol-3-yl)-1-methyl-pyridin-2(1H)-one]	< 5.30	> 6.30	> 6.30
Cn1cc(-c2cnn(CS(C)(=O)=O)c2)c(-c2ccccc2)cc1=O [Example 129, 1-methyl-5-(1-((methyl-sulfonyl)-methyl)-1H-pyrazol-4-yl)-4-phenylpyridin-2(1H)-one]	< 5.30	> 6.30	> 6.30
Cn1cc(-c2cnn(-c3ccccc3C(=O)O)c2)c(-c2ccccc2)cc1=O [Example 223, 2-[4-(1-Methyl-6-oxo-4-phenyl-1,6-dihydro-pyridin-3-yl)-pyrazol-1-yl]-benzoic acid]	< 5.30	> 6.30	> 6.30
Cn1cc(-c2cnn(-c3ccccc3S(C)(=O)=O)c2)c(-c2ccc(Cl)cc2)cc1=O [Example 286, 4-(4-Chloro-phenyl)-5-[1-(2-methanesulfonyl-phenyl)-1H-pyrazol-4-yl]-1-methyl-1H-pyridin-2-one]	< 5.30	> 6.30	> 6.30
CCNc1ncc(-c2cc(=O)n(C)cc2-c2cnn(-c3ccccc3C#N)c2)cn1 [Example 323, 2-(4-(4-(2-(ethylamino)pyrimidin-5-yl)-1-methyl-6-oxo-1,6-dihydropyridin-3-yl)-1H-pyrazol-1-yl)benzonitrile]	5.30 to 6.30	> 6.30	> 6.30
Cn1cc(-c2cnc(-c3ccccc3)o2)c(-c2ccccc2)cc1=O [Example 397, 1-methyl-4-phenyl-5-(2-phenyloxazol-5-yl)pyridin-2(1H)-one]	–	5.30 to 6.30	–
Cc1sc2c(c1C)C(c1ccc(Cl)cc1)=N[C@@H](CC(=O)OC(C)(C)C)c1nnc(C)n1-2 [JQ-1, tert-butyl (S)-2-(4-(4-chloro-phenyl)-2,3,9-trimethyl-6H-thieno[3,2-f][1,2,4]triazolo[4,3-a][1,4]diazepin-6-yl)acetate, reference compound]	–	–	< 5.30
Cc1cc(-c2nc(NS(C)(=O)=O)ncc2Oc2ccc(F)cc2F)cn(C)c1=O [N-(5-(2,4-difluorophenoxy)-4-(1,5-dimethyl-6-oxo-1,6-dihydropyridin-3-yl)pyrimidin-2-yl) methanesulfonamide]	> 6.30	–	< 5.30
N-{2-[5-(1-benzyl-1H-pyrazol-4- yl)-1-methyl-2-oxo-1,2-dihydro- pyridin-4-yl]-cyclo- pentyl}-acetamide [Example 88]	–	> 6.30	–
